The text below walks through data of ChEMBL document CHEMBL1140871, “Diaryl-dithiolanes and -isothiazoles: COX-1/COX-2 and 5-LOX-inhibitory, *OH scavenging and anti-adhesive activities” (Bioorg Med Chem, 2009).

Data set [1] can be described thus: Inhibition of 5LOX in bovine polymorphonuclear leucocytes assessed as leukotriene B4 formation. The data set is classed as cell-based. The note with it: Bos taurus.
The target of data set [2] is T1, Prostaglandin G/H synthase 2 (Homo sapiens, UniProt P35354).
T1 sequence (P35354 whole entry): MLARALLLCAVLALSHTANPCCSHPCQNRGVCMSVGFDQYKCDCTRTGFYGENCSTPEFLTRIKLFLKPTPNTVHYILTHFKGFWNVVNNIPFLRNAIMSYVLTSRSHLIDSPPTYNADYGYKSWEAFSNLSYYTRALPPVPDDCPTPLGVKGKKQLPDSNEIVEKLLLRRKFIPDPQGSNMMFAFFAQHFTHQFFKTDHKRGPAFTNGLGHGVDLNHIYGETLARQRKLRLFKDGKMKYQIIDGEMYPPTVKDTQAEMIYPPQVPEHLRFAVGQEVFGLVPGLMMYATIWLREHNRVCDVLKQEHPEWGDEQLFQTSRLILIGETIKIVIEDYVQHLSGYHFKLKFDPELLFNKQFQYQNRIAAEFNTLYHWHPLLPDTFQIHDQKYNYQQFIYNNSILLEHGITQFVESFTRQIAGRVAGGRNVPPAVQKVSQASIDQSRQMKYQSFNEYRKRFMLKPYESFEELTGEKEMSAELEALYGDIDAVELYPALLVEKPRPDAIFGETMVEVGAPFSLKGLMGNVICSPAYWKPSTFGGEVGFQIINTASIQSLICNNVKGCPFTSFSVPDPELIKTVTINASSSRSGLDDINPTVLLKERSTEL
In words: Inhibition of COX2 in LPS-stimulated human blood.

Data set [3] has as its target T2, Prostaglandin G/H synthase 1 (Bos taurus, UniProt O62664).
T2 sequence (O62664 whole entry): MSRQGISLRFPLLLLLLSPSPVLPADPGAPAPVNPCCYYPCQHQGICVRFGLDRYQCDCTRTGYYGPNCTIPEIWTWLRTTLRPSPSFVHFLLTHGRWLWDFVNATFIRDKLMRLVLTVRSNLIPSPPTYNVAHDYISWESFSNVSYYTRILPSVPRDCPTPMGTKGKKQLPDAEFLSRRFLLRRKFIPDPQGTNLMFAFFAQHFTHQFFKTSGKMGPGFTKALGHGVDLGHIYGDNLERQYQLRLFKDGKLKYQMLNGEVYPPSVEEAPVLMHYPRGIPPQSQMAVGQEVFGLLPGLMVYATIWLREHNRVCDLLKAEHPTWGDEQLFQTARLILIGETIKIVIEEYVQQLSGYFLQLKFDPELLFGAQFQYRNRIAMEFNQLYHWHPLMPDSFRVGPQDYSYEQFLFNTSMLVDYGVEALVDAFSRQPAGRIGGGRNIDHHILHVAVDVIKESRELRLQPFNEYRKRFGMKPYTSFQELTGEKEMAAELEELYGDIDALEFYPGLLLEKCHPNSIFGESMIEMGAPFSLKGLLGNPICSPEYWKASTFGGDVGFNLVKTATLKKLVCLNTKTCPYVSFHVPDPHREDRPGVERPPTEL
Description: Inhibition of COX1 in bovine platelets assessed as formation of 12-hydroxyheptadecatrienoic acid by HPLC

For data set [4], the system named is MONO-MAC-6. Put plainly: Inhibition of TNF-alpha-stimulated adhesion of human MM6 cells to BAEC at 100 uM by static assay relative to control. Type of data set: functional.
Another data set is filed under the species Bos taurus. The conditions noted are these: 10 uM.
The test system of data set [5] is MONO-MAC-6. Put plainly: Inhibition of TNF-alpha-stimulated adhesion of human MM6 cells to BAEC at 30 uM by static assay relative to control. Type of data set: functional.
Data set [6] relates to Mus musculus. In words: Reduction of CD11b protein expression on neutrophils in BALB/c mouse compound 48/80-induced peritonitis model at 50 mg/kg, ip administered 1 hr before compound 48/80 challenge. The data set is classed as functional. The arrangement: scale not given: the % may be the effect or the level left. The conditions noted are these: route intraperitoneal.
The subject of data set [7] is Mus musculus. In words: Effect on compound 48/80-induced leukocyte recruitment in BALB/c mouse peritonitis model assessed as reduction in polymorphonuclear leucocyte count in peritoneal cavity at 50 mg/kg, ip administered 1 hr before compound 48/80 challenge. The arrangement: scale not given: the % may be the effect or the level left. Type of data set: functional. The note with it: route intraperitoneal.

The nature of data set [8]: Cytotoxicity against BALB/c mouse polymorphonuclear leukocytes assessed as cell viability after 6 hrs by trypan blue exclusion assay. The note with it: read-out: Activity.
Data set [9] relates to MONO-MAC-6. Put plainly: Inhibition of TNF-alpha-stimulated adhesion of human MM6 cells to BAEC at 40 uM by static assay relative to control. The conditions noted are these: MONO-MAC-6, read-out: INH.

Description for Bos taurus: Inhibition of 5LOX in bovine polymorphonuclear leucocytes assessed as leukotriene B4 formation at 10 uM

The IC50 is the concentration that inhibits the measured activity by half. As to `Oc1ccc(-c2cnsc2-c2ccc(O)cc2)cc1`, the figures for the IC50 in [1], in data set [2] and in data set [3] were > 50 µM, > 50 µM and 1 µM, respectively.
`Oc1ccc(-c2ssc(=S)c2-c2ccc(O)cc2)cc1` displayed an inhibition at 100 µM with MONO-MAC-6 [4] of 54%. For the same compound, the IC50 in data set [1] was 6 µM; in [2], > 50 µM; in data set [3] it was 20 µM.
Turning to `Clc1ccc(-c2cnsc2-c2ccc(Cl)cc2)cc1`, the IC50 in data set [2] worked out at 4 µM; in [3] it was 0.1 µM.
On to `Cc1ccc(-c2ssc(=O)c2-c2ccc(Cl)cc2)cc1`, for which the IC50 in [1] is > 50 µM; in data set [2] it was > 50 µM; in [3] it was 0.02 µM.
As for `Cc1ccc(-c2cnsc2-c2ccc(Cl)cc2)cc1`, the IC50 is 50 µM in data set [1], > 50 µM in data set [2] and 0.04 µM in [3].
The like results for `Cc1ccc(-c2c(-c3ccc(Cl)cc3)ssc2=O)cc1` were, in that order, > 50 µM, > 50 µM and 0.2 µM.
Take `CS(=O)(=O)c1ccc(-c2ssc(=O)c2-c2ccccc2)cc1`: the IC50 was > 50 µM in [1], 1.1 µM in data set [2] and 8 µM in data set [3]. In addition, the inhibition in the data set filed under Bos taurus amounted to 13%.
In the data set with MONO-MAC-6 [5], `CC1(C)Cc2c(-c3ccccc3)c(-c3ccc(Cl)cc3)c(CC(=O)O)n2C1` [LICOFELONE] displayed an inhibition at 30 µM of 56%. Besides, the IC50 worked out at 0.189 µM in data set [1] and 0.2 µM in data set [3].
Regarding `Cc1ccc(-c2sncc2-c2ccc(Cl)cc2)cc1`, the IC50 in data set [1] is > 50 µM; in data set [3] it was 0.2 µM.
Take `COc1ccc(-c2ssc(=S)c2-c2ccc(OC)cc2)cc1`: the IC50 worked out at 10 µM in data set [1], 20 µM in data set [2] and 0.03 µM in data set [3].
The like results for `COc1ccc(-c2ssc(=O)c2-c2ccc(OC)cc2)cc1` were, in that order, > 50 µM, 1 µM and 0.0003 µM.
The like results for `Cc1ccc(-c2ssc(=S)c2-c2ccc(Cl)cc2)cc1` were, in that order, > 50 µM, 50 µM and 0.006 µM.
The like results for `CS(=O)(=O)c1ccc(-c2sncc2-c2ccc(F)cc2)cc1` were, in that order, 10 µM, 9 µM and 50 µM.
On to `O=C(O)Cc1ccccc1Nc1c(Cl)cccc1Cl` [DICLOFENAC], for which, in data set [1], the half-inhibitory concentration (IC50) is > 50 µM.
Consider `CC(Cc1ccc(O)c(O)c1)C(C)Cc1ccc(O)c(O)c1` (stereo not drawn) [NORDIHYDROGUAIARETIC ACID], for which the half-inhibitory concentration (IC50) in data set [1] is 1 µM; in data set [2], > 50 µM; in data set [3], 50 µM.
The like results for `COc1ccc(-c2sncc2-c2ccc(Cl)cc2)cc1` were, in that order, 20 µM, > 50 µM and 0.02 µM.
For `Cc1ccc(-c2c(-c3ccc(Cl)cc3)ssc2=S)cc1` the same measures were 20 µM, > 50 µM and 2 µM.
Regarding `COc1ccc(-c2cnsc2-c2ccc(Cl)cc2)cc1`, the IC50 in data set [1] amounted to 50 µM; in [3], 0.07 µM.
The compound `CS(=O)(=O)c1ccc(-c2ssc(=S)c2-c2ccc(F)cc2)cc1` yielded an inhibition at 100 µM in the data set on MONO-MAC-6 [4] of 85%. The figures for the IC50 in data set [1], in [2] and in data set [3] were 20 µM, > 50 µM and > 50 µM, respectively.
`CS(=O)(=O)c1ccc(-c2ssc(=S)c2-c2ccccc2)cc1` yielded an inhibition at 100 µM with MONO-MAC-6 [4] of 9%. The IC50 in [1] was 3 µM; in [2] it was > 50 µM.
Regarding `COc1ccc(-c2sncc2-c2ccc(C)cc2)cc1`, the 50% inhibitory concentration (IC50) in [1] is 8 µM; in [2], > 50 µM; in data set [3], 0.01 µM.
For `COc1ccc(-c2cnsc2-c2ccc(OC)cc2)cc1` the same measures were 20 µM, 0.8 µM and 0.003 µM.
Take `Cc1ccc(-c2c(-c3ccc(S(C)(=O)=O)cc3)ssc2=S)cc1`: the inhibition at 100 µM in the data set on MONO-MAC-6 [4] worked out at 71%. Further, the results for the Activity in the data set on Mus musculus [6] and with Mus musculus [7] were 40% and 49%, respectively. Moreover, the values for the IC50 in [1], in [2] and in [3] were 9 µM, 9 µM and 7 µM, respectively. The viability at 6 h in [8] was 94%.
With `CS(=O)(=O)c1ccc(-c2c(-c3ccccc3)ssc2=S)cc1`, the inhibition at 100 µM with MONO-MAC-6 [4] worked out at 38%. The IC50 in data set [1] is > 50 µM; in data set [2] it was > 50 µM; in data set [3], 20 µM.
`CS(=O)(=O)c1ccc(-c2c(-c3ccccc3)ssc2=O)cc1`: the IC50 is > 50 µM in data set [1], > 50 µM in data set [2] and 8 µM in [3].
With `Cc1ccc(-c2ssc(=S)c2-c2ccc(S(C)(=O)=O)cc2)cc1`, in the data set with MONO-MAC-6 [4], the inhibition at 100 µM stood at 26%. In addition, the IC50 is > 50 µM in [1], > 50 µM in data set [2] and 0.6 µM in [3].
Take `Cc1ccc(-c2cc(C(F)(F)F)nn2-c2ccc(S(N)(=O)=O)cc2)cc1` [CELECOXIB]: the inhibition at 40 µM with MONO-MAC-6 [9] is 85%.
